Measured values reported in ChEMBL document CHEMBL1938367, “Novel potent 2,5-pyrrolidinedione peptidomimetics as aminopeptidase N inhibitors. Design, synthesis and activity evaluation” (Bioorg Med Chem Lett, 2012).

Legend:
[1] = target: T1, Aminopeptidase N (Sus scrofa) (UniProt P15145); test: Ratio of bestatin IC50 to compound IC50 for porcine kidney microsomal aminopeptidase N
T1 sequence (whole entry): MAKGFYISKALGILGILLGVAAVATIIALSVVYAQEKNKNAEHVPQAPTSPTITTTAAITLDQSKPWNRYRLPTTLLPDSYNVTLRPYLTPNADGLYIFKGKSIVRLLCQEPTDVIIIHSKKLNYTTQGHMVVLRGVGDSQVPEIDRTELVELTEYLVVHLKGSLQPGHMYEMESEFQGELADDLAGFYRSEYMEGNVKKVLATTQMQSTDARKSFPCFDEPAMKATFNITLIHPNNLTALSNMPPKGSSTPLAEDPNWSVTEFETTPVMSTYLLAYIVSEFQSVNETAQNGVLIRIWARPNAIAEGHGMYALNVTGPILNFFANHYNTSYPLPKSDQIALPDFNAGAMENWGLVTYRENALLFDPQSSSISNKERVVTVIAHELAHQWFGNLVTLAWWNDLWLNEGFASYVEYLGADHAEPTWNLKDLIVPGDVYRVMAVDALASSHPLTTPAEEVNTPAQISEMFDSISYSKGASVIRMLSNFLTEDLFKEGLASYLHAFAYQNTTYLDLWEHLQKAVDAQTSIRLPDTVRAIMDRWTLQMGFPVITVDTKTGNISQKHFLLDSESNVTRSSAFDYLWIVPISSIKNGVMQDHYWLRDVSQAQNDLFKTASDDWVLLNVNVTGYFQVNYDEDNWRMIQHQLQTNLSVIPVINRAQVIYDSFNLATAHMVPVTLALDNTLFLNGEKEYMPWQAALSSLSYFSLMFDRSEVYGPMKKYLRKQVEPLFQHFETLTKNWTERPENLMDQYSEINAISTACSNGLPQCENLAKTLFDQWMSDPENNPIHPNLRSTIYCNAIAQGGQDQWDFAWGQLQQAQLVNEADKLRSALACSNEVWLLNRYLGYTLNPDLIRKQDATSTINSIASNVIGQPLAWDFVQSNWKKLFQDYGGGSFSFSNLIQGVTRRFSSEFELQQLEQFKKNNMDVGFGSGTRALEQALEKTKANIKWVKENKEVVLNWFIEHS

[2] = target: T2, Aminopeptidase N (Sus scrofa, UniProt P15145); test: Inhibition of porcine kidney microsomal aminopeptidase N using L-Leu-p-nitroanilide as substrate pre-incubated for 30 mins prior substrate addition by UV-VIS spectrophotometry
T2 sequence (P15145 whole entry): T1 sequence (whole entry)

[3] = tested on: H22; test: Antimetastatic activity against […] H22 cells xenografted in mouse assessed as inhibition of metastasized nodes on lung surface dosed orally 6 days/week for 2 weeks; assay type: functional
[4] = tested on: HL-60; test: Antiproliferative activity against human HL60 cells after 48 hrs by MTT assay; assay type: functional, cell-based; conditions: HL-60, 48 h

IC50 [2] | Structure (SMILES) | further results
 | CC(C)C[C@H](NC(=O)[C@@H](O)[C@H](N)Cc1ccccc1)C(=O)N1CCC[C@H]1C(=O)N1CCC[C@H]1C(=O)O | Ratio IC50 [1]: 50
1000 nM | CC[C@@H](C)[C@H](N)C(=O)N[C@H]1CC(=O)N(CC(=O)NO)C1=O | 
1000 nM | Cl.N[C@@H](Cc1ccccc1)C(=O)N[C@H]1CC(=O)N(CC(=O)NO)C1=O | inhibition (INH) [3]: 54.21%; IC50 [4]: 149000 nM; Ratio IC50 [1]: 2.4
1000 nM | CC(C)C[C@H](N)C(=O)N[C@H]1CC(=O)N(CC(=O)NO)C1=O | 
1000 nM | CC(C)[C@H](N)C(=O)N[C@H]1CC(=O)N(CC(=O)NO)C1=O | 
1000 nM | O=C(CN1C(=O)C[C@H](NC(=O)[C@@H]2CCCN2)C1=O)NO | 
1000 nM | NCCCC[C@H](N)C(=O)N[C@H]1CC(=O)N(CC(=O)NO)C1=O | 
 | CC(C)C[C@H](NC(=O)[C@@H](O)[C@H](N)Cc1ccccc1)C(=O)O [UBENIMEX] | inhibition (INH) [3]: 45.37%
1000 nM | C[C@H](N)C(=O)N[C@H]1CC(=O)N(CC(=O)NO)C1=O | 
1000 nM | NCC(=O)N[C@H]1CC(=O)N(CC(=O)NO)C1=O | 

Structure (SMILES) | IC50 [2] | further results
N[C@@H](Cc1ccc(O)cc1)C(=O)N[C@H]1CC(=O)N(CC(=O)NO)C1=O | 1000 nM | 
